Reference: patent US20110212968A1, “PHENETHYLAMIDE DERIVATIVES AND THEIR HETEROCYCLIC ANALOGUES” (priority 2008, published 2011)
pIC50: −log10 of the molar value.

Experiments:
human orexin-2 receptor = target: T1, human orexin-2 receptor (Homo sapiens, UniProt O43614); experiment: Intracellular calcium measurement (FLIPR Tetra), orexin receptor antagonistic activity, OX2; assay type: cell-based; conditions: CHO cells expressing human orexin-2 receptor, 3 nM orexin-A
T1 construct: expressed in transfected cells; host or cells: CHO (Chinese hamster ovary) cells, kept under G418 selection
T1 sequence (O43614 1-444): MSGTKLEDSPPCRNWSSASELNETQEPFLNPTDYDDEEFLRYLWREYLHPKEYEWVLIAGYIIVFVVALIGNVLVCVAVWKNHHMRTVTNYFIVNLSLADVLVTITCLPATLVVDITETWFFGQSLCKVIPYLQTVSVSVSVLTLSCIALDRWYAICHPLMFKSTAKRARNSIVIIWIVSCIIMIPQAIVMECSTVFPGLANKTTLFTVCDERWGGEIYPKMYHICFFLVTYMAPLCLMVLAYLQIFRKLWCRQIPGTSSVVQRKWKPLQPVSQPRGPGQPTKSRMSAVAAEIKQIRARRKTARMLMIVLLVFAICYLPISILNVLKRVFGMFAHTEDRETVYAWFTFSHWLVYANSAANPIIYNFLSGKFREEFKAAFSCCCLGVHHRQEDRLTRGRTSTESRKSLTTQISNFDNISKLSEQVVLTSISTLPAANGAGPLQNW
In short: (§1)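 Recombinant CHO cells expressing human OX1 or OX2, loaded with fluo-4 AM plus probenecid, were preincubated with antagonist 10 min, then stimulated with 3 nM human orexin-A. Peak fluorescence was compared with vehicle; IC50 derived, sometimes normalized to an on-plate reference compound; two pipetting/cell-splitting conditions were used.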

human orexin-1 receptor = target: T2, human orexin-1 receptor (Homo sapiens, UniProt O43613); experiment: Intracellular calcium measurement (FLIPR Tetra), orexin receptor antagonistic activity, OX1; assay type: cell-based; conditions: CHO cells expressing human orexin-1 receptor, 3 nM orexin-A
T2 construct: expressed in transfected cells; host or cells: CHO (Chinese hamster ovary) cells, kept under G418 selection
T2 sequence (O43613 1-425): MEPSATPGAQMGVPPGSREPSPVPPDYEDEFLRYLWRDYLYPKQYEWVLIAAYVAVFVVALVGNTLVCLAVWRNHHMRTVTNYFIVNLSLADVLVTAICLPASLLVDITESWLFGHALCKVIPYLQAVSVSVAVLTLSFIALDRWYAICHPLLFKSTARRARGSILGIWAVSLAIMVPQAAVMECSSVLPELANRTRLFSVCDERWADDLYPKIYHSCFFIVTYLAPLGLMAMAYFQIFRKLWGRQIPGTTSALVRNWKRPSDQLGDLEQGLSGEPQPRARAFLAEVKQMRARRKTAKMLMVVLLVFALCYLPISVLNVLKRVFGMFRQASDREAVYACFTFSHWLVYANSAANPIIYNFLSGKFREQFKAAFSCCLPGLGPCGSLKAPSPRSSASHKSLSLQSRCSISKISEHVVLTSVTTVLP
In short: as §1

[1] = conditions B, normalized (*) using IC50 of on-plate reference compound

| Compound | pIC50 (human orexin-2 receptor; [1]) | pIC50 (human orexin-1 receptor; [1]) | further results |
| --- | --- | --- | --- |
| COc1ccc(CCN(CC2CC2)C(=O)c2sc(C)nc2-c2ccc(Cl)cc2)cc1OC [Example 48, 4-(4-Chloro-phenyl)-2-methyl-thiazole-5-carboxylic acid cyclopropylmethyl-[2-(3,4-dimethoxy-phenyl)-ethyl]-amide] | – | – | pIC50 (human orexin-2 receptor; conditions A): 7.77; pIC50 (human orexin-1 receptor; conditions A): 5.31 |
| COc1ccc(CCN(CC2CC2)C(=O)c2nc(C)sc2-c2ccccc2)cc1OC [Example 18, 2-Methyl-5-phenyl-thiazole-4-carboxylic acid cyclopropylmethyl-[2-(3,4-dimethoxy-phenyl)-ethyl]-amide] | – | – | pIC50 (human orexin-2 receptor; conditions A): 8.40; pIC50 (human orexin-1 receptor; conditions A): 6.03 |
| COc1ccc(CCN(CC2CC2)C(=O)c2nc(C)sc2-c2cccc(C#N)c2)cc1OC [Example 19, 5-(3-Cyano-phenyl)-2-methyl-thiazole-4-carboxylic acid cyclopropylmethyl-[2-(3,4-dimethoxy-phenyl)-ethyl]-amide] | – | – | pIC50 (human orexin-2 receptor; conditions A): 7.40; pIC50 (human orexin-1 receptor; conditions A): 5.66 |
| CCCN(CCc1c[nH]c2ccc(F)cc12)C(=O)c1nccnc1-c1ccc(C)c(C)c1 [Example 292, 3-(3,4-Dimethyl-phenyl)-pyrazine-2-carboxylic acid [2-(5-fluoro-1H-indol-3-yl)-ethyl]-propyl-amide] | 8.00 | 6.79 | – |
| COc1ccc(C(O)CN(CC2CC2)C(=O)c2nc(N(C)C)sc2-c2cccc(C)c2)cc1OC (stereo not shown) [Example 79, 2-Dimethylamino-5-m-tolyl-thiazole-4-carboxylic acid cyclopropylmethyl-[2-(3,4-dimethoxy-phenyl)-2-hydroxy-ethyl]-amide] | – | – | pIC50 (human orexin-2 receptor; conditions A): 6.80; pIC50 (human orexin-1 receptor; conditions A): 6.56 |
| COc1ccc(-c2cccnc2C(=O)N(CCc2c[nH]c3ccc(F)cc23)CC(F)F)cn1 [Example 317, 6′-Methoxy-[3,3′]bipyridinyl-2-carboxylic acid (2,2-difluoro-ethyl)-[2-(5-fluoro-1H-indol-3-yl)-ethyl]-amide] | 6.79 | 6.12 | – |
| Cc1ccc(-c2nccnc2C(=O)N(CCc2c[nH]c3c(C)cccc23)CC2CC2)cc1C [Example 337, 3-(3,4-Dimethyl-phenyl)-pyrazine-2-carboxylic acid cyclopropylmethyl-[2-(7-methyl-1H-indol-3-yl)-ethyl]-amide] | 8.30 | 7.80 | – |
| Cc1ccc(-c2nccnc2C(=O)N(CCc2c[nH]c3ccc(F)cc23)CC(N)=O)cc1C [Example 294, 3-(3,4-Dimethyl-phenyl)-pyrazine-2-carboxylic acid carbamoylmethyl-[2-(5-fluoro-1H-indol-3-yl)-ethyl]-amide] | 6.15 | 5.42 | – |
| Cc1nc(C(=O)N(CCc2c[nH]c3ccc(F)cc23)CC2CC2)c(-c2ccc(C)c(F)c2F)s1 [Example 273, 5-(2,3-Difluoro-4-methyl-phenyl)-2-methyl-thiazole-4-carboxylic acid cyclopropylmethyl-[2-(5-fluoro-1H-indol-3-yl)-ethyl]-amide] | 7.19 | 6.39 | – |
| Cc1ccc(-c2nccnc2C(=O)N(CCc2cn(C)c3ccccc23)CC2CC2)cc1C [Example 330, 3-(3,4-Dimethyl-phenyl)-pyrazine-2-carboxylic acid cyclopropylmethyl-[2-(1-methyl-1H-indol-3-yl)-ethyl]-amide] | 8.10 | 7.74 | – |
| CCN(CCc1ccc(OC)c(OC)c1)C(=O)c1nc(C)sc1-c1ccc(C)c(C)c1 [Example 108, 5-(3,4-Dimethyl-phenyl)-2-methyl-thiazole-4-carboxylic acid [2-(3,4-dimethoxy-phenyl)-ethyl]-ethyl-amide] | – | – | pIC50 (human orexin-2 receptor; conditions B): 8.30; pIC50 (human orexin-1 receptor; conditions B): 7.44 |
| Cc1cccc(-c2sc(N)nc2C(=O)N(CCc2c[nH]c3cc(F)ccc23)CC2CC2)c1 [Example 233, 2-Amino-5-m-tolyl-thiazole-4-carboxylic acid cyclopropylmethyl-[2-(6-fluoro-1H-indol-3-yl)-ethyl]-amide] | 7.66 | 7.43 | – |
| COc1ccc2[nH]cc(CCN(CC3CC3)C(=O)c3nccnc3-c3ccccc3)c2c1 [Example 322, 3-Phenyl-pyrazine-2-carboxylic acid cyclopropylmethyl-[2-(5-methoxy-1H-indol-3-yl)-ethyl]-amide] | 7.62 | 6.72 | – |
| COc1ccc(C(O)CN(CC2CC2)C(=O)c2c(-c3ccccc3)nc3ccc(Cl)cn23)cc1OC (stereo not shown) [Example 97, 6-Chloro-2-phenyl-imidazo[1,2-a]pyridine-3-carboxylic acid cyclopropylmethyl-[2-(3,4-dimethoxy-phenyl)-2-hydroxy-ethyl]-amide] | – | – | pIC50 (human orexin-2 receptor; conditions A): 6.58; pIC50 (human orexin-1 receptor; conditions A): 5.31 |
| COc1cccc(-c2cccnc2C(=O)N(CCc2ccc(OC)c(OC)c2)CC2CC2)c1 [Example 393, 3-(3-Methoxy-phenyl)-pyridine-2-carboxylic acid cyclopropyl-methyl-[2-(3,4-dimethoxy-phenyl)-ethyl]-amide] | – | – | pIC50 (human orexin-2 receptor; conditions B): 8.52; pIC50 (human orexin-1 receptor; conditions B): 6.97 |
| COc1ccc(C(O)CN(CC2CC2)C(=O)c2nc(Br)sc2-c2cccc(C)c2)cc1OC (stereo not shown) [Example 56, 2-Bromo-5-m-tolyl-thiazole-4-carboxylic acid cyclopropylmethyl-[2-(3,4-dimethoxy-phenyl)-2-hydroxy-ethyl]-amide] | – | – | pIC50 (human orexin-2 receptor; conditions A): 6.52; pIC50 (human orexin-1 receptor; conditions A): 6.16 |
| Cc1cccc(-c2sc(N)nc2C(=O)N(CCc2c[nH]c3c(C)cccc23)CC2CC2)c1 [Example 230, 2-Amino-5-m-tolyl-thiazole-4-carboxylic acid cyclopropylmethyl-[2-(7-methyl-1H-indol-3-yl)-ethyl]-amide] | – | – | pIC50 (human orexin-2 receptor; conditions B): 7.74; pIC50 (human orexin-1 receptor; conditions B): 8.05 |

Second part, led by results:

| pIC50 (human orexin-2 receptor; [1]) | pIC50 (human orexin-1 receptor; [1]) | Compound | further results |
| --- | --- | --- | --- |
| 7.30 | < 4.96 | Cc1cccc2c(CCN(CC3CC3)C(=O)c3nccnc3-c3cncnc3)c[nH]c12 [Example 438, 3-Pyrimidin-5-yl-pyrazine-2-carboxylic acid cyclopropylmethyl-[2-(7-methyl-1H-indol-3-yl)-ethyl]-amide] | – |
| 6.84 | 5.44 | COc1ccc(-c2sc(C)nc2C(=O)N(CCc2c[nH]c3ccc(F)cc23)CC2CC2)cc1C [Example 410, 5-(4-Methoxy-3-methyl-phenyl)-2-methyl-thiazole-4-carboxylic acid cyclopropylmethyl-[2-(5-fluoro-1H-indol-3-yl)-ethyl]-amide] | – |
| 6.89 | 5.94 | Cc1cccc(-c2ncncc2C(=O)N(CCc2c[nH]c3ccccc23)CC(F)(F)F)c1 [Example 549, 4-m-Tolyl-pyrimidine-5-carboxylic acid [2-(1H-indol-3-yl)-ethyl]-(2,2,2-trifluoro-ethyl)-amide] | – |
| 8.05 | 6.58 | CCN(CCc1c[nH]c2ccccc12)C(=O)c1cncnc1-c1ccc(Br)c(Cl)c1 [Example 536, 4-(4-Bromo-3-chloro-phenyl)-pyrimidine-5-carboxylic acid ethyl-[2-(1H-indol-3-yl)-ethyl]-amide] | – |
| 7.92 | 7.24 | O=C(c1ncccc1-c1cnc2ccccc2c1)N(CCc1c[nH]c2ccc(F)cc12)CC1CC1 [Example 404, 3-Quinolin-3-yl-pyridine-2-carboxylic acid cyclopropylmethyl-[2-(5-fluoro-1H-indol-3-yl)-ethyl]-amide] | – |
| 7.82 | 6.75 | CCN(CCc1c[nH]c2ccccc12)C(=O)c1cncnc1-c1ccc(Cl)c(Cl)c1 [Example 544, 4-(3,4-Dichloro-phenyl)-pyrimidine-5-carboxylic acid ethyl-[2-(1H-indol-3-yl)-ethyl]-amide] | – |
| 7.64 | 7.06 | COc1ccc(-c2cccnc2C(=O)N(CCc2c[nH]c3cc(Cl)ccc23)CC2CC2)cn1 [Example 353] | – |
| 7.89 | 6.83 | Cc1nc(C(=O)N(CCc2c[nH]c3ccc(F)cc23)CC2CC2)c(-c2ccc(F)c(CO)c2)s1 [Example 418, 5-(4-Fluoro-3-hydroxymethyl-phenyl)-2-methyl-thiazole-4-carboxylic acid cyclopropylmethyl-[2-(5-fluoro-1H-indol-3-yl)-ethyl]-amide] | – |
| 7.32 | 5.86 | COc1ccc2[nH]cc(CCN(CC3CC3)C(=O)c3cnc(C)nc3-c3ccccc3)c2c1C [Example 479, 2-Methyl-4-phenyl-pyrimidine-5-carboxylic acid cyclopropylmethyl-[2-(5-methoxy-4-methyl-1H-indol-3-yl)-ethyl]-amide] | – |
